Measured values: US20180136227A1, “Treatment and Diagnosis of Hereditary Xerocytosis” (Universite d'aix Marseille, priority 2015, published 2018)

Legend:
[1] = Sickle Cell disease, Ataga et al., 2011; cited from earlier work
control red blood cells = test: Osmotic fragility test in hypotonic saline, control red blood cells; settings: for hemolysis induced before the osmotic test: blood incubation 25 hours, control red blood cells
[2] = tested on: control red blood cells with WT Gardos channels; test: Vanadate-induced K+ loss and water loss in control red blood cells; type: cell-based, human
Experimental: Red blood cell cation content and volume measurements: Freshly drawn blood was washed 4 times at room temperature in medium containing in mM: NaCl 147, KCl 5, MgSO4 2, CaCl2 1, Hepes 10, buffered with NaOH pH 7.4 (320 mOsm). […] A few minutes before sampling time, 400 μl of cell suspension was taken to fill 3 nylon tubes that were centrifuged for 10 minutes at 4° C., 20,000. g at the exact sampling time. The supernatant was collected for extracellular ion content measurements. The pellet of red cells was extracted and immediately weighted. Then, dry weight was measured after overnight heating (80° C.). Water content was calculated with a correction of 3.64% corresponding to trapped medium between packed cells. Intracellular ions were extracted from dried pellets by overnight incubation at 4° C. in 5 ml milliRho water (Millipore). Na^+ and K^+ were measured by flame spectroscopy with a PFP7 Jenway. Statistics: Mann and Whitney test was used to compare control versus patient or control versus inhibitor in red blood cell experiments.

| SMILES | toxicity in phase III study [1] | hemolysis induced before the osmotic test (control red blood cells; Senicapoc 4 or 0.4 μM) | effect on osmotic resistance (control red blood cells; Senicapoc 4 or 0.4 μM, blood stored 25 hours at 4° C., control) | inhibition at 0.4 µM ([2]; Homo sapiens, Erythrocyte, 1 h) [%] | inhibition at 4 µM ([2]; Homo sapiens, Erythrocyte, 1 h) [%] | hemolysis induced before the osmotic test (control red blood cells; TRAM-34 10 μM) | inhibition at 10 µM ([2]; Homo sapiens, Erythrocyte, 1 h, read-out: inhibition of K+ loss) [%] | effect on K+ loss and cell water loss ([2]; TRAM-34 10 μM, 5 mM vanadate, red blood cells with WT Gardos channels) |
| --- | --- | --- | --- | --- | --- | --- | --- | --- |
| NC(=O)C(c1ccccc1)(c1ccc(F)cc1)c1ccc(F)cc1 [Senicapoc, bis(4-fluorophenyl)phenyl acetamide] | non-toxic | not observed | no effect | 84 ± 4 | 95 ± 4 | – | – | – |
| Clc1ccccc1C(c1ccccc1)(c1ccccc1)n1cccn1 [TRAM-34, 1-[(2-Chlorophenyl)diphenylmethyl]-1H-pyrazole] | – | – | – | – | – | strong hemolysis | 97 ± 1 | able to reduce |
